Assay results taken from patent US20160206637A1, “Effects of Alpha-Glycerophosphocholine Versus Caffeine in Measures of Cognitive, Psychological and Physiological Functions” (priority 2015, published 2016).

Assays:
[1] = system: recreationally active participants; test: Visual analog scale (VAS) for jitteriness; settings: 200 mg caffeine; compared to αGPC-H (400 mg), but not αGPC-L or PL; 30 minutes after supplementation
Protocol: (§1) Upon arrival to the Human Performance Laboratory at Angelo State University on each of the 4 testing sessions, participants were provided with a sample of the supplement. Participants were assigned to consume a placebo, 200 mg of caffeine, 200 mg of α-GPC, and 400 mg of α-GPC in a randomized, double-blind, placebo controlled, cross-over manner. After consuming the supplement, participants waited 30 minutes before completing the testing protocol. All participants were advised that they should not have had anything to eat or drink, except for water, in the previous 8 hours. Additionally, participants were asked to refrain from consuming any food or beverages that contain caffeine or other stimulants for at least 24 hours prior to completing the testing sessions.
(§2) Twenty participants (10 males, 10 females; 22.0±3.4 years of age; height 171.9±7.4 cm; weight 56.8±8.6 kg) consumed 200 mg of αGPC (αGPC-L, Alpha-Size®, Chemi Nutra, Austin, Tex. USA), 400 mg of Alpha-GPC (αGPC-H), 200 mg of caffeine (CA), and a placebo (PL) in a randomized, double-blind, placebo-controlled, crossover design. Participants performed the following measurements 30 minutes after supplementation: visual analog scales (VAS) for six different moods, a serial subtraction test (SST), and tests for reaction time, hand-eye coordination, power, speed and agility.

[2] = system: recreationally active participants; test: Vertical jump test, peak power (Tendo Unit); format: in vivo, human; settings: 30 minutes after supplementation
Protocol: Participants were scored by the total number of successful catches. Following the non-fatiguing tests, the participants performed a standardized warm-up in which they walked on a treadmill for 5 minutes at 3 miles per hour. Following the warm-up, participants performed the fatiguing tests which included vertical jump, broad jump, 40 yard dash, and the pro-agility shuttle. […] Participants then performed three attempts for the standing broad jump. Maximum broad jump distance was recorded. Lastly, participants performed one 40 yard dash and one pro-agility shuttle (5-10-5 drill) on an indoor, wooden gymnasium floor. Times was measured by hand and recorded.
as §1, §2

[3] = system: recreationally active participants; test: Serial subtraction test (SST) of cognitive function; format: in vivo, human; settings: 30 minutes after supplementation; for SST score (average time per correct calculation): 200 mg oral, crossover, 20 participants
Excerpt: Following supplementation, participants performed all non-fatiguing tests first.

[4] = system: healthy, college-aged males; test: Upper body isometric test (UBIST) peak force; format: in vivo, human; settings: 600 mg daily
Protocol: The Institutional Review Board at the University of Louisiana at Lafayette reviewed the present investigation for ethics. The study was a double-blind, placebo-controlled crossover with a 1-week washout period that included 13 healthy, college-aged males (Means±SD; Age: 21.9±2.2 years, Height: 180.3±7.7 cm; Weight: 87.6±15.6 kg, VO2 max: 40.08±7.23 ml O2*kg^−1; body fat: 17.5±4.6%). Subjects reported to the lab and give informed consent, which included consent to publish, prior to baseline assessments, which included height and weight, an assessment of maximum aerobic capacity via a COSMED CPET system (COSMED, Rome ITL) with integrated electronically braked cycle ergometer as outlined in previous studies incorporated herein by reference (5) and body fat percentage via air displacement plethysmography (Bod Pod Gold Standard System, COSMED Rome, ITL). The following week trial one (random order: either placebo or 600 mg of αGPC) began. For the trials baseline performance testing was done and they were given an initial dose (placebo or α-GPC) while in the lab, 1 h later the performance testing (isometric mid-thigh pull, upper body isometric test) was repeated. The subjects were then given 6 days of additional pre-packaged supplement to take (morning and evening). The subjects reported back on day 6 of this period to repeat performance testing after the final dose of supplement. After a 1-week washout period, the subjects repeated the trial with the other treatment (see FIG. 4). […]
The participants were positioned on three elevated platforms with the chest directly suspended over a load cell anchored into the concrete floor of the lab (iLoad Pro, Loadstar Sensors, Fremont Calif.). […] The participants were placed in a push-up style position, with the hands at 150% of biacromial width, and the elbows at 90° of extension (measured via a goniometer). […] The load cell was set to capture data at maximum rate (150 Hz) and the data was exported and analyzed in JMP 11.0 (SAS Institute Inc, Ca1y NC). […]
(§3) Reliability was assessed for the isometric tests via Intra Class Correlation Coefficients (ICC). […]

[5] = system: healthy, college-aged males; test: Isometric mid-thigh pull (IMTP) peak force; format: in vivo, human
Protocol: The Institutional Review Board at the University of Louisiana at Lafayette reviewed the present investigation for ethics. The study was a double-blind, placebo-controlled crossover with a 1-week washout period that included 13 healthy, college-aged males (Means±SD; Age: 21.9±2.2 years, Height: 180.3±7.7 cm; Weight: 87.6±15.6 kg, VO2 max: 40.08±7.23 ml O2*kg^−1; body fat: 17.5±4.6%). Subjects reported to the lab and give informed consent, which included consent to publish, prior to baseline assessments, which included height and weight, an assessment of maximum aerobic capacity via a COSMED CPET system (COSMED, Rome ITL) with integrated electronically braked cycle ergometer as outlined in previous studies incorporated herein by reference (5) and body fat percentage via air displacement plethysmography (Bod Pod Gold Standard System, COSMED Rome, ITL). The following week trial one (random order: either placebo or 600 mg of αGPC) began. For the trials baseline performance testing was done and they were given an initial dose (placebo or α-GPC) while in the lab, 1 h later the performance testing (isometric mid-thigh pull, upper body isometric test) was repeated. The subjects were then given 6 days of additional pre-packaged supplement to take (morning and evening). The subjects reported back on day 6 of this period to repeat performance testing after the final dose of supplement. After a 1-week washout period, the subjects repeated the trial with the other treatment (see FIG. 4).
The treatments consisted of 600 mg daily of α-GPC (Alphasize®, ChemiNutra, Austin Tex.) or a placebo. Both treatments were administered in the same capsules (gel caps) and were the same color (white). The α-GPC capsules were supplied with a certificate of analysis from a third party lab confirming the amount of active ingredient. The placebo capsule consisted of microcrystalline cellulose and magnesium stearate (Nature's Supplements, Carlsbad, Calif. USA). Both the participant and researcher were unaware of the identity of either treatment until the end of the study. […]
The isometric mid-thigh pull test (IMTP) is a well validated strength measure (Beckman, G, et al. “Relationship of isometric mid-thigh pull variables to weightlifting performance.” J. Sports Med. Phys Fitness 2010; 35:573-81). […] The height of the bar was adjusted so that the participant was in a position where the torso was upright (assessed via a contractors box level), the knees achieved between 120-130° of flexion (measured via a goniometer) and the arms were straight while holding the bar. […] The peak force was assessed at a sampling rate of 2000 Hz using an AMT1 Force Plate. […]
as §3

Compound | scores on the VAS for jitteriness [1] | Vertical Jump Peak Power ([2]; 200 mg oral) | Vertical Jump Peak Power higher in comparison to PL ([2]; 200 mg oral) [%] | SST score (average time per correct calculation) [3] [s] | magnitude based inference: likely beneficial for increasing upper body isometric force ([4]; 6 days) [%] | UBIST force production, change from baseline ([4]; baseline to day 6) [N] | UBIST effect size (ES, Cohen's d), treatment by time ([4]; day 6, vs placebo) | magnitude based inference: likely beneficial for increasing lower body isometric force production ([5]; 600 mg daily, 6 days) [%] | IMTP effect size (ES, Cohen's d), treatment by time ([5]; 600 mg daily, day 6, vs placebo) | IMTP performance, acute treatment effect (repeated measures Anova) ([5]; 1 h after the initial dose, vs placebo) | increase in lower body isometric strength ([5]; 6 days of supplementation, 600 mg daily) [%] | Vertical Jump Peak Power ([2]; 400 mg oral (αGPC-H)) | Vertical Jump Peak Power higher in comparison to PL ([2]; 400 mg oral (αGPC-H)) [%] | SST scores faster compared to CA ([3]; 200 mg αGPC (αGPC-L) vs 200 mg caffeine) [%] | SST scores faster compared to PL ([3]; 200 mg αGPC (αGPC-L) vs placebo) [%]
Cn1c(=O)c2c(ncn2C)n(C)c1=O [CA, caffeine] | significantly higher | 1,920.4±689.6 W | 2.0 | 7.32 ± 5.67 | – | – | – | – | – | – | – | – | – | – | –
α-Glycerophosphocholine [αGPC] | – | 2,041.3±547.2 W | 8.5 | 6.19 ± 2.21 | 68.3 | 50.9±167.2 | 0.714 | 86.5 | 0.961 | did not reveal any main effects | > 3 | 2,023.1±942.8 W | 7.5 | 18.1 | 10.5
